Source: US20240158370A1, “CK1 alpha AND DUAL CK1 alpha / GSPT1 DEGRADING COMPOUNDS” (Innovo Therapeutics, Inc., priority 2022, published 2024)

How the values were obtained:
GSPT1 = GSPT1 (Homo sapiens, UniProt P15170+Q96SW2); assay: HiBiT degradation assay, GSPT1, Procedure A; format: cell-based; design: HiBit-GSPT1 KI HEK293(LgBit) Cells; host or cells: HEK293(LgBit) knock-in cells
In short: (§1)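 10-pt dose response, 10–0.005 μM, 0.1% DMSO; cells 1×10^6/ml in DMEM/10% FBS, 6 h, 37° C; HiBiT lytic detection, luminescence; DC50 + Ymin by 4-parameter fit.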

CK1α = molecular target: T1, CK1α (Homo sapiens, UniProt P48729+Q96SW2); assay: HiBiT degradation assay, CK1α, Procedure A; format: cell-based
T1 construct: CSNK1A1-HiBit KI HEK293(LgBit) Cells; host or cells: HEK293(LgBit) knock-in cells
T1 sequence (P48729 whole entry): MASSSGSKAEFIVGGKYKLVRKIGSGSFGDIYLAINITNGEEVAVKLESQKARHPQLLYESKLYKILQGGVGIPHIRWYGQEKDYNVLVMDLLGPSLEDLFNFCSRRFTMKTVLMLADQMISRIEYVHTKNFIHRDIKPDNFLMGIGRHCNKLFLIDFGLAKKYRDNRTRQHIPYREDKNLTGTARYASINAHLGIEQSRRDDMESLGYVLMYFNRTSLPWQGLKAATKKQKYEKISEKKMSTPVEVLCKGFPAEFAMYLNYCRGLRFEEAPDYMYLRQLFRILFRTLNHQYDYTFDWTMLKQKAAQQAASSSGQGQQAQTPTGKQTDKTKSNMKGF
T1 sequence (Q96SW2 whole entry): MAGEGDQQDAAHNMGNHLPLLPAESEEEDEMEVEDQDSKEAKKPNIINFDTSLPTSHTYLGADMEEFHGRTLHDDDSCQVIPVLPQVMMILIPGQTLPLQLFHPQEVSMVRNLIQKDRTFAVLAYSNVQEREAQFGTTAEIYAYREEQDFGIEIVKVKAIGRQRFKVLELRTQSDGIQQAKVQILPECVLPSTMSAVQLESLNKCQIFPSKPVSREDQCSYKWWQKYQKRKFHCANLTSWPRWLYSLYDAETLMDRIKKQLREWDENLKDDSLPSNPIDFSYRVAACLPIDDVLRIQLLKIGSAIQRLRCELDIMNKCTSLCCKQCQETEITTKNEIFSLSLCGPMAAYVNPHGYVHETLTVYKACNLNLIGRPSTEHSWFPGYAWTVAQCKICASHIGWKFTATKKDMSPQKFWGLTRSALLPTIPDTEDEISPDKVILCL
T1 sequence (Q16531 whole entry partner): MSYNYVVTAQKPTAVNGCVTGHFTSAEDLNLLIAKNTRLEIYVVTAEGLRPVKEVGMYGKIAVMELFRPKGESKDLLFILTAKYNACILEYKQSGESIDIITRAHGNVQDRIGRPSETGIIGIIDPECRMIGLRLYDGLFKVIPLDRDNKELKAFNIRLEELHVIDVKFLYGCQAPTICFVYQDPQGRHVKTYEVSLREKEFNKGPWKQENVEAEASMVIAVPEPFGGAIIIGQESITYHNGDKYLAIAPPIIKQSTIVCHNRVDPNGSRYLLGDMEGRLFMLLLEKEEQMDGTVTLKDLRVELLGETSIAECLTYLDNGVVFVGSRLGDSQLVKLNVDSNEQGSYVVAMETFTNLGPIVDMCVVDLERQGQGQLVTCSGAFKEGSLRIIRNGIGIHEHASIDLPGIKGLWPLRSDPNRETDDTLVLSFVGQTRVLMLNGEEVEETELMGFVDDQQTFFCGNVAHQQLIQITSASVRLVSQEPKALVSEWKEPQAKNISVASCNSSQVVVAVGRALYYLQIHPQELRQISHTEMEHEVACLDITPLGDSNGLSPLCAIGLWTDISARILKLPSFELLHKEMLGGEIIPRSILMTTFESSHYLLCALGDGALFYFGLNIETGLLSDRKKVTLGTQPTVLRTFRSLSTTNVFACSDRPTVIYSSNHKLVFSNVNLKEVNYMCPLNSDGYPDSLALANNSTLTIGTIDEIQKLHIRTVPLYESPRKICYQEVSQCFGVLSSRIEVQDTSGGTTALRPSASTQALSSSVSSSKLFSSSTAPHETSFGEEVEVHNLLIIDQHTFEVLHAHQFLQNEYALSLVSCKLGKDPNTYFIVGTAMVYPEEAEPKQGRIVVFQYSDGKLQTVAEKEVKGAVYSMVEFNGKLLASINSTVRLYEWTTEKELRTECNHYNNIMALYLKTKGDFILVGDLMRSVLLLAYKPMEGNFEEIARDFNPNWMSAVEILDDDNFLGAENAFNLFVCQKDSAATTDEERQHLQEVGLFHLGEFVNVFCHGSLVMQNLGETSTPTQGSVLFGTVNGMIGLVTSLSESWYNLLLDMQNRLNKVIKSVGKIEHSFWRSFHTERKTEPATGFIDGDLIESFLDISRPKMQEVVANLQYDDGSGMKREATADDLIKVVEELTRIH
In short: as §1

Sequence of GSPT1 (P15170 whole entry): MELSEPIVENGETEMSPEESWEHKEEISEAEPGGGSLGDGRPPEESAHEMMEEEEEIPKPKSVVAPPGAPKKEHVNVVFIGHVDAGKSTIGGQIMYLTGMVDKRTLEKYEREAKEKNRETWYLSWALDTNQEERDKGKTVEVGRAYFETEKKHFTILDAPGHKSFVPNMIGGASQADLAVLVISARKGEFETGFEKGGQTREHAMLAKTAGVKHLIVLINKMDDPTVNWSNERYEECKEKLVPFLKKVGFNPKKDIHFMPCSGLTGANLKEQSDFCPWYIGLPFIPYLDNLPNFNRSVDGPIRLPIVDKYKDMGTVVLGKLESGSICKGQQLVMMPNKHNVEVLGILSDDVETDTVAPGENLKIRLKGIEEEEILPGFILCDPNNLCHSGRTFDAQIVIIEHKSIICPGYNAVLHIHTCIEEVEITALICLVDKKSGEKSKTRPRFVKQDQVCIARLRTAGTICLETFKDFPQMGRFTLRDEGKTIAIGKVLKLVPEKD
Sequence of GSPT1 (Q96SW2 whole entry): as the sequence (Q96SW2 whole entry) above
Sequence of GSPT1 (Q16531 whole entry partner): as the sequence (Q16531 whole entry partner) above

Row | DC50 (GSPT1; six hours) [µM] | GSPT1 Ymin (GSPT1; six hours) | CK1α Ymin (CK1α; six hours) | DC50 (CK1α; six hours) [µM] | DC50 (GSPT1; six hours incubation) [µM] | GSPT1 Ymin (GSPT1; six hours incubation) | CK1α Ymin (CK1α; six hours incubation) | DC50 (CK1α; six hours incubation) [µM] | Compound
1 | ≥ 0.025 | F (F = >75-100% remaining) | E (E = >25-75% remaining) | ≥ 0.025 | – | – | – | – | Cn1ncc(-c2ccc3c(c2)CN(C2CCC(=O)NC2=O)C3=O)c1-c1cn[nH]c1 (stereo not shown) [Example 468]
2 | < 0.025 | E (E = >25-75% remaining) | C (C = 0-10% remaining) | < 0.025 | – | – | – | – | Cn1cnc(-c2ccc3c(c2)CN(C2CCC(=O)NC2=O)C3=O)c1-c1ccc2c(ccn2C)c1 (stereo not shown) [Example 496]
3 | ≥ 0.025 | F (F = >75-100% remaining) | C (C = 0-10% remaining) | < 0.025 | – | – | – | – | Cn1ncc(-c2ccc3c(c2)CN(C2CCC(=O)NC2=O)C3=O)c1-c1ccc2c(c1)CCCO2 (stereo not shown) [Example 477]
4 | ≥ 0.025 | F (F = >75-100% remaining) | D (D = >10- 25% remaining) | < 0.025 | – | – | – | – | Cn1cc(-c2ccc3c(c2)CN(C2CCC(=O)NC2=O)C3=O)nc1C1CCC2(CC1)CC2 (stereo not shown) [Example 534, 3-(5-(1-Methyl-2-(spiro[2.5]octan-6-yl)-1H-imidazol-4-yl)-1-oxoisoindolin-2-yl)piperidine-2,6-dione]
5 | – | – | – | – | < 0.025 | F (F = >75-100% remaining) | D (D = >10- 25% remaining) | < 0.025 | Cn1cnc(-c2ccc3c(c2)CN(C2CCC(=O)NC2=O)C3=O)c1C1CC1 (stereo not shown) [Example 316]
6 | – | – | – | – | ≥ 0.025 | F (F = >75-100% remaining) | E (E = >25-75% remaining) | ≥ 0.025 | O=C1CCC(N2Cc3cc(-c4c[nH]nc4C4CC4)ccc3C2=O)C(=O)N1 (stereo not shown) [Example 47, 3-(5-(3-Cyclopropyl-1H-pyrazol-4-yl)-1-oxoisoindolin-2-yl)piperidine-2,6-dione]
7 | ≥ 0.025 | F (F = >75-100% remaining) | E (E = >25-75% remaining) | ≥ 0.025 | – | – | – | – | Cn1nc(-c2ccc3c(c2)CN(C2CCC(=O)NC2=O)C3=O)cc1-c1cncnc1 (stereo not shown) [Example 533]
8 | ≥ 0.025 | F (F = >75-100% remaining) | C (C = 0-10% remaining) | < 0.025 | – | – | – | – | Cn1cc(-c2ccc3c(c2)CN(C2CCC(=O)NC2=O)C3=O)nc1-c1ccc(F)cc1 (stereo not shown) [Example 556]
9 | ≥ 0.025 | F (F = >75-100% remaining) | E (E = >25-75% remaining) | < 0.025 | – | – | – | – | CCOC(=O)Cc1cccc(-c2c(-c3ccc4c(c3)CN(C3CCC(=O)NC3=O)C4=O)cnn2C)c1 (stereo not shown) [Example 410]
10 | ≥ 0.025 | F (F = >75-100% remaining) | D (D = >10- 25% remaining) | < 0.025 | – | – | – | – | Cn1cc(-c2ccc3c(c2)CN(C2CCC(=O)NC2=O)C3=O)nc1C1CCOCC1 (stereo not shown) [Example 532, 3-(5-(1-methyl-2-(tetrahydro-2H-pyran-4-yl)-1H-imidazol-4-yl)-1-oxoisoindolin-2-yl)piperidine-2,6-dione]
11 | – | – | – | – | ≥ 0.025 | F (F = >75-100% remaining) | E (E = >25-75% remaining) | ≥ 0.025 | O=C1CCC(N2Cc3cc(-c4sncc4-c4ccccc4)ccc3C2=O)C(=O)N1 (stereo not shown) [Example 31, 3-(1-Oxo-5-(4-phenylisothiazol-5-yl)isoindolin-2-yl) piperidine-2,6-dione]
12 | – | – | – | – | < 0.025 | E (E = >25-75% remaining) | D (D = >10- 25% remaining) | < 0.025 | Cn1cnc(-c2ccc3c(c2)CN(C2CCC(=O)NC2=O)C3=O)c1-c1ccc(-c2ccccc2)cc1 (stereo not shown) [Example 294]
13 | < 0.025 | E (E = >25-75% remaining) | C (C = 0-10% remaining) | < 0.025 | – | – | – | – | COc1cccc(-c2nc(-c3ccc4c(c3)CN(C3CCC(=O)NC3=O)C4=O)cn2C)c1 (stereo not shown) [Example 578]
14 | – | – | – | – | ≥ 0.025 | F (F = >75-100% remaining) | E (E = >25-75% remaining) | < 0.025 | COc1c(Cl)cccc1-c1c(-c2ccc3c(c2)CN(C2CCC(=O)NC2=O)C3=O)ncn1C (stereo not shown) [Example 278]
15 | – | – | – | – | ≥ 0.025 | F (F = >75-100% remaining) | E (E = >25-75% remaining) | < 0.025 | Cn1ncc(-c2ccc3c(c2)CN(C2CCC(=O)NC2=O)C3=O)c1-c1ccc(F)cc1Cl (stereo not shown) [Example 88]
16 | – | – | – | – | ≥ 0.025 | E (E = >25-75% remaining) | E (E = >25-75% remaining) | < 0.025 | Cc1ccc(-c2c(-c3ccc4c(c3)CN(C3CCC(=O)NC3=O)C4=O)ncn2C)c(C)c1 (stereo not shown) [Example 166]
17 | – | – | – | – | ≥ 0.025 | F (F = >75-100% remaining) | E (E = >25-75% remaining) | < 0.025 | Cn1ncc(-c2ccc3c(c2)CN(C2CCC(=O)NC2=O)C3=O)c1-c1ccc(C(F)(F)F)cc1 (stereo not shown) [Example 63]
18 | < 0.025 | F (F = >75-100% remaining) | D (D = >10- 25% remaining) | < 0.025 | – | – | – | – | Cn1ccc(-c2c(-c3ccc4c(c3)CN(C3CCC(=O)NC3=O)C4=O)ncn2C)n1 (stereo not shown) [Example 505]
19 | – | – | – | – | ≥ 0.025 | F (F = >75-100% remaining) | E (E = >25-75% remaining) | < 0.025 | Cn1cnc(-c2ccc3c(c2)CN(C2CCC(=O)NC2=O)C3=O)c1-c1ccccc1C(F)(F)F (stereo not shown) [Example 282]
20 | – | – | – | – | ≥ 0.025 | F (F = >75-100% remaining) | E (E = >25-75% remaining) | ≥ 0.025 | CN1CCN(Cc2ccc(-c3c(-c4ccc5c(c4)CN(C4CCC(=O)NC4=O)C5=O)cnn3C)cc2)CC1 (stereo not shown) [Example 154]
21 | – | – | – | – | ≥ 0.025 | F (F = >75-100% remaining) | D (D = >10- 25% remaining) | < 0.025 | Cn1ncc(-c2ccc3c(c2)CN(C2CCC(=O)NC2=O)C3=O)c1-c1ccc(-c2ccncc2)cc1 (stereo not shown) [Example 153]
22 | ≥ 0.025 | F (F = >75-100% remaining) | E (E = >25-75% remaining) | < 0.025 | – | – | – | – | Cn1cnc(-c2ccc3c(c2)CN(C2CCC(=O)NC2=O)C3=O)c1-c1cnc2c(ccn2C)c1 (stereo not shown) [Example 499]
23 | – | – | – | – | < 0.025 | E (E = >25-75% remaining) | C (C = 0-10% remaining) | < 0.025 | COc1ccc(-c2c(-c3ccc4c(c3)CN(C3CCC(=O)NC3=O)C4=O)ncn2C)c(F)c1 (stereo not shown) [Example 189]
24 | – | – | – | – | ≥ 0.025 | F (F = >75-100% remaining) | E (E = >25-75% remaining) | < 0.025 | COc1cccc(-c2c(-c3ccc4c(c3)CN(C3CCC(=O)NC3=O)C4=O)cnn2C)c1 (stereo not shown) [Example 69]
25 | – | – | – | – | < 0.025 | F (F = >75-100% remaining) | E (E = >25-75% remaining) | < 0.025 | Cn1ncc(-c2ccc3c(c2)CN(C2CCC(=O)NC2=O)C3=O)c1-c1ccc(OC(F)(F)F)cc1 (stereo not shown) [Example 340, 3-(5-(1-methyl-5-(4-(trifluoromethoxy)phenyl)-1H-pyrazol-4-yl)-1-oxoisoindolin-2-yl)piperidine-2,6-dione]
26 | < 0.025 | E (E = >25-75% remaining) | C (C = 0-10% remaining) | < 0.025 | – | – | – | – | CCCCc1ccc(-c2nc(-c3ccc4c(c3)CN(C3CCC(=O)NC3=O)C4=O)cn2C)cc1 (stereo not shown) [Example 577]
27 | – | – | – | – | < 0.025 | E (E = >25-75% remaining) | C (C = 0-10% remaining) | < 0.025 | O=C1CCC(N2Cc3cc(-c4nc[nH]c4-c4ccccc4)ccc3C2=O)C(=O)N1 (stereo not shown) [Example 13, 3-(1-Oxo-5-(5-phenyl-1H-imidazol-4-yl)isoindolin-2-yl) piperidine-2,6-dione]
28 | – | – | – | – | ≥ 0.025 | F (F = >75-100% remaining) | D (D = >10- 25% remaining) | < 0.025 | COc1ccc(-c2c(-c3ccc4c(c3)CN(C3CCC(=O)NC3=O)C4=O)cnn2C)c(C)c1 (stereo not shown) [Example 143]
